Laboratory results as given in patent publication US20190008961A1, “COMPOUNDS AND METHODS FOR INCREASING TUMOR INFILTRATION BY IMMUNE CELLS” (THE BROAD INSTITUTE, INC., priority 2016, published 2019).

What was measured:
MSC cells = assay: RSL3 toxicity in the presence of inhibitors of arachidonic acid metabolic enzymes; assay type: cell-based; conditions: for RSL3 mediated cell death in MSCs with soluble epoxide hydrolase inhibitors: FIG. 14, TPPU 20 and 80 μM, AUDA and butyl-AUDA 80 μM; for effect on toxicity of RSL3: increasing amounts of RSL3, FIG. 13
From the text: To investigate the role of RSL3's effects on MSC toxicity, MDA-MSC co-cultures were contacted by compounds that were known inhibitors of arachidonic acid metabolic enzymes.

[1] = tested on: MSCs and WI-38 fibroblasts; assay: viability, Cell Titer Glo, 72 hours; assay type: cell-based, human
Description: Viability measurements were made to determine whether RSL3 is toxic to MDA cells, MSCs or both. Viability was assessed by seeding cells into 384-well opaque-bottom plates (Corning, Corning N.Y. catalog #3570) then treating them 24 hours later with varying concentrations of RSL3 (added using the pin-transfer instrument CyBi-Well Vario, Cybio, Woburn Mass.) for an additional period of 72 hours. Viable cells remaining after the treatment were quantified using the Cell Titer Glo reagent (Promega, Madison Wis. catalog #G7570) that measures cellular ATP content.

plasma stability, human = assay type: in vitro ADME
Description: (§1) Plasma Stability. Plasma stability was determined at 37° C. at 5 hours in both human and mouse plasma. Each compound was prepared in duplicate at 5 μM in plasma diluted 50/50 (v/v) with PBS pH 7.4 (0.95% acetonitrile, 0.05% DMSO). Compounds were incubated at 37° C. for 5 hours with a 350-rpm orbital shake with time points taken at 0 hours and 5 hours. Samples were analyzed by UPLC-MS (Waters, Milford, Mass.) with compounds detected by SIR detection on a single quadrupole mass spectrometer.

plasma stability, mouse = assay type: in vitro ADME
Description: as §1

[2] = plasma protein binding by equilibrium dialysis, human; assay type: in vitro ADME; conditions: 5 μM
Description: Plasma Protein Binding. Plasma protein binding was determined by equilibrium dialysis using the Rapid Equilibrium Dialysis (RED) device (Pierce Biotechnology, Rockford, Ill.) for both human and mouse plasma. Each compound was prepared in duplicate at 5μM in plasma (0.95% acetonitrile, 0.05% DMSO) and added to one side of the membrane (200 μL) with PBS pH 7.4 added to the other side (350 μL). Compounds were incubated at 37° C. for 5 hours with a 350-rpm orbital shake. After incubation, samples were analyzed by UPLC-MS (Waters, Milford, Mass.) with compounds detected by SIR detection on a single quadrupole mass spectrometer.

[3] = microsomal stability, human; assay type: in vitro ADME
Description: (§2) Microsomal Stability. Microsomal stability was determined at 37° C. at 60 minutes in both human and mouse microsomes. Each compound was prepared in duplicate at 1 μM with 0.3 mg/mL microsomes in PBS pH 7.4 (1% DMSO). Compounds were incubated at 37° C. for 60 minutes with a 350-rpm orbital shake with time points taken at 0 minutes and 60 minutes. Samples were analyzed by UPLC-MS (Waters, Milford, Mass.) with compounds detected by SIR detection on a single quadrupole mass spectrometer.

[4] = microsomal stability, mouse; assay type: in vitro ADME
Description: as §2

MSC-shGPX cells = assay: Zileuton rescue of viability in GPX4 knockdown MSCs; assay type: cell-based; conditions: increasing Zileuton
Description: In a knockdown GPX4 experiment in MSCs, increasing amounts of Zileuton were added to MSC-shLacZ cells as a control and to MSC-shGPX cells growing in 384-well plates and their viability was measured after 5 days of growth (see FIG. 15).

In the case of `O=C(O)CCCCCCCCCCCNC(=O)NC12CC3CC(CC(C3)C1)C2` [AUDA], the “RSL3 mediated cell death in MSCs with soluble epoxide hydrolase inhibitors” value (MSC cells) is reported as “increase in RSL3 mediated cell death”.
With `COc1ccc2c(c1)c(CC(=O)O)c(C)n2C(=O)c1ccc(Cl)cc1` [Indomethacin] the “effect on toxicity of RSL3” value (MSC cells) was “little impact”.
With `CC(C)c1ccc2c(c1)c(SC(C)(C)C)c(CC(C)(C)C(=O)O)n2Cc1ccc(Cl)cc1` [MK886] the “effect on toxicity of RSL3” value (MSC cells) was “lessened the toxicity of RSL3”.
In the case of `COc1ccc(N(C(=O)CCl)C(C(=O)NCCc2ccccc2)c2cccs2)cc1Cl` (stereo not shown) [ML162], the “stromal cell death, potency relative to RSL3” value [1] is reported as “lower potencies than that of RSL3”.
For `c1ccc2c(c1)SCc1c-2[nH]c2ccccc12` [PD146176], the “effect on toxicity of RSL3” value (MSC cells) was “lessened the toxicity of RSL3”.
With `COC(=O)c1ccc([C@@H]2c3[nH]c4ccccc4c3C[C@@H](C(=O)OC)N2C(=O)CCl)cc1` [RSL3] the “potency in inhibiting viability of stromal cells compared with MDA cancer cells or HUVEC endothelial cells” value ([1]; 72 hours treatment) was over 10 fold, the “Plasma Stability (5 h)” value (plasma stability, human; Human, 37° C., 5 μM) was 47% and the “stability in human plasma, in words” value (plasma stability, human; human) was “modest stability”. For the same molecule, the “Plasma Stability (5 h)” value (plasma stability, mouse; Mouse, 37° C., 5 μM) was under 1%, the “stability in murine plasma, in words” value (plasma stability, mouse; murine) was “little stability” and the “Plasma Binding Protein (5 h)” value [2] was 98.2%. The “Liver Microsome Stability (1 h)” value ([3]; Human, 1 μM, 0.3 mg/mL microsomes) was 32.7%, the “stability in human liver microsomal assay, in words” value ([3]; human) was “modest stability” and the “Liver Microsome Stability (1 h)” value ([4]; Mouse, 1 μM, 0.3 mg/mL microsomes) was under 1%. For the same molecule, the “stability in murine liver microsomal assay, in words” value ([4]; murine) was “little stability”.
For `CCC(=O)N1CCC(NC(=O)Nc2ccc(OC(F)(F)F)cc2)CC1` [TPPU], the “RSL3 mediated cell death in MSCs with soluble epoxide hydrolase inhibitors” value (MSC cells) was “increase in RSL3 mediated cell death” and the “effect on toxicity of RSL3” value (MSC cells) was “enhanced RSL3 effects”.
In the case of `CC(c1cc2ccccc2s1)N(O)C(N)=O` (stereo not shown) [Zileuton], the “rescue of stromal cells from death by GPX4 inhibition” value (MSC cells) is reported as “rescued”, the “effect on toxicity of RSL3” value (MSC cells) is reported as “lessened the toxicity of RSL3” and the “amount of MSC-shGPX cells that survived” value (MSC-shGPX cells; 5 days of growth) is reported as “increased with higher amounts of Zileuton”. For the same molecule, the “viability of control MSC-shLacZ cells” value (MSC-shGPX cells; FIG. 15) was “no effect”.
With `CCCCS(=N)(=O)CCC(N)C(=O)O` (stereo not shown) [buthionine sulfoximine, S-n-butyl homocysteine sulfoximine] the “stromal cell death, potency relative to RSL3” value [1] was “lower potencies than that of RSL3”.
In the case of `CCCCOC(=O)CCCCCCCCCCCNC(=O)NC12C[C@H]3C[C@@H](C1)C[C@@H](C2)C3` [butyl-AUDA], the “RSL3 mediated cell death in MSCs with soluble epoxide hydrolase inhibitors” value (MSC cells) is reported as “increase in RSL3 mediated cell death”.
With `COc1cccc2c1C(=O)c1c(O)c3c(c(O)c1C2=O)C[C@@](O)(C(=O)CO)C[C@@H]3O[C@H]1C[C@H](N)[C@H](O)[C@H](C)O1` [doxorubicin] the “sensitivity of MSCs and fibroblasts to the drug” value ([1]; viability, FIG. 4B) was “did not show enhanced sensitivity”.
In the case of `CCOC(=O)c1ccc(NC2CCCCC2)c(N)c1` [ferrostatin], the “rescue of stromal cells from death by GPX4 inhibition” value (MSC cells) is reported as “rescued”.
